{"source": "a melting point compilation (Tetko et al.; mined from patent text by program, amines drawn as free bases though some values may be those of a salt)", "data": [{"units": {"melting point": "°C"}, "values": [{"molecule": "N=C(N)Nc1nc(CCCCC(=N)NS(N)(=O)=O)cs1", "melting point": "156 to 157"}, {"molecule": "CCCOc1c(OC)cc(C(=O)Cl)cc1[N+](=O)[O-]", "melting point": "180 to 184"}, {"molecule": "CCCCCCCCCCCCOC(=O)c1ccc2cc(O)ccc2c1", "melting point": "103 to 104"}, {"molecule": "O=C1NC(c2ccccc2)N(CCN2CCN(c3ccccc3)CC2)c2ccccc21", "note": "(stereo not given)", "melting point": "142 to 144"}, {"molecule": "Cc1[nH]c2ccc(CCN3CCN(C)CC3)cc2c1C(=O)OCc1ccccc1", "melting point": "167 to 168"}, {"molecule": "CC1(C)CC(=O)OC(C(Cl)(Cl)Cl)C1Cl", "note": "(stereo not given)", "melting point": "83 to 84"}, {"molecule": "Nc1cc(N2CC(CCc3ccccc3)OC2=O)ccn1", "note": "(stereo not given)", "melting point": "143 to 144"}, {"molecule": "CN(C(CCn1c(=O)cc(C(F)(F)F)[nH]c1=O)C(=O)NO)S(=O)(=O)c1ccc(Oc2cccc(Cl)c2)cc1", "note": "(stereo not given)", "melting point": "168 to 169"}, {"molecule": "Cc1ncc(-c2ccc(Cl)cc2)cc1C(=O)OC(C)(C)C", "melting point": "70 to 72"}, {"molecule": "COc1cc(C(C)=O)ccc1OCCCCl", "melting point": "57.8 to 58.5"}, {"molecule": "CCCCOC(=O)N1CCSCC1", "melting point": "72.9 to 78.9"}, {"molecule": "O=[N+]([O-])c1cccc(C(c2cccc([N+](=O)[O-])c2)(C(F)(F)F)C(F)(F)F)c1", "melting point": "118 to 119"}, {"molecule": "CC(SC1COC(C2([N+](=O)[O-])C=CC(C(=O)Nc3ccccc3)=CC2)OC1)C(O)(Cn1cncn1)c1ccc(F)cc1F", "note": "(stereo not given)", "melting point": 189}, {"molecule": "CCCCc1ncc(/C=C(\\Cc2cccs2)C(N)=O)n1Cc1ccccc1Cl", "melting point": "182 to 184"}, {"molecule": "CN(C(=O)COc1nc(C(Cl)(Cl)Cl)ns1)C1=CCCCC1", "melting point": 78}, {"molecule": "C[C@@H]1CNc2c(cccc2[N+](=O)[O-])[C@H](C)N1", "note": "(relative stereo)", "melting point": 62}, {"molecule": "CCCCCC(OC(C)=O)c1ccccc1COc1cccc2ccc(=O)[nH]c12", "note": "(stereo not given)", "melting point": "92 to 95"}, {"molecule": "O=C(O)COc1ccc(C(=O)c2ccoc2)c2ccccc12", "melting point": 177}, {"molecule": "Cc1ccccc1NC(=O)CN(C(=O)CN1C(=O)c2ccccc2C1=O)c1ccccc1", "melting point": 160}, {"molecule": "COC(=O)[C@]12CN(Cc3ccccc3)C[C@@H]1C(=O)CC[C@@]2(C)c1ccccc1", "note": "(racemic)", "melting point": 115}, {"molecule": "COc1cc(C(=O)N2CCC(CCN3CCC(C(=O)c4nc5ccccc5n4Cc4ccc(F)cc4)CC3)(c3ccc(Cl)c(Cl)c3)C2)cc(OC)c1OC", "note": "(stereo not given)", "melting point": "87 to 90"}, {"molecule": "O=C1OC(c2ccccc2)N=C1CCCNC(=O)c1ccccc1", "note": "(stereo not given)", "melting point": "135 to 138"}, {"molecule": "O=C1Cc2cccc(Oc3cccc(Cl)c3)c2O1", "melting point": "105 to 106"}, {"molecule": "CNCc1ccc([C@H]2CC[C@H](OC(=O)Cc3ccc(Cl)cc3)CC2)cc1", "melting point": "65 to 67"}, {"molecule": "O=C(O)c1ccccc1NCCNc1ccccc1F", "melting point": "127 to 128"}, {"molecule": "COc1ccc(S(=O)(=O)c2c(Br)cc(CC(=O)O)cc2Br)cc1C1CCCCC1", "melting point": "146 to 150"}, {"molecule": "COCCOc1cc2c(cc1-c1ccc(F)cc1)NC(=O)CC(c1cccc(-n3ccnc3)c1)=N2", "melting point": "196 to 197"}, {"molecule": "CC(C)n1nc(-c2sc(NC(=O)c3ccccc3C(F)(F)F)nc2-c2ccccc2)ccc1=O", "melting point": "219 to 220"}, {"molecule": "O=C1NCCc2c(-c3cccc(Oc4ccc(F)cc4)c3)[nH]c3cccc1c23", "melting point": "240 to 241"}, {"molecule": "O=C1c2ccccc2C(=O)c2c1c(Cl)c1ccc(Sc3ccccc3)cc1c2Cl", "melting point": "160 to 163"}, {"molecule": "Cc1ccc(-n2c(=O)c(C)nc3cccnc32)cc1", "melting point": "215 to 216"}, {"molecule": "CC(C)(C)CC(C)(C)c1cc(-n2nc3ccc(Sc4ccccc4)cc3n2)c(O)c(C(C)(C)c2ccccc2)c1", "melting point": "124 to 125"}, {"molecule": "CCOc1csc2ccc(C(=O)c3cnoc3C3CC3)c(SC)c12", "melting point": "166 to 168"}, {"molecule": "N#CCCNC(=O)C1=CC(CF)(CF)Oc2ccc([N+](=O)[O-])cc21", "melting point": "173 to 174"}, {"molecule": "O=C(CC(=O)C(F)(F)F)c1nc2ccc(F)cc2s1", "melting point": "175 to 178"}, {"molecule": "NC(=O)CNC(=O)c1ccnc(-c2ccc3c(c2)C(c2ccc(Cl)cc2Cl)CC3)c1", "note": "(stereo not given)", "melting point": "168 to 170"}, {"molecule": "CCOc1cc(C=O)ccc1OCC(=O)O", "melting point": "90 to 92.6"}, {"molecule": "CN1C(=O)CCC(C)(C)c2cc(Nc3ncc(Cl)c(N[C@H]4[C@@H](C(N)=O)[C@@H]5C=C[C@H]4C5)n3)ccc21", "melting point": 233}, {"molecule": "COc1ccc(-n2nc3c(cc2=O)CCSc2sc(C)cc2-3)cc1", "melting point": "145 to 146"}, {"molecule": "CCOc1ccccc1C1CC(C(C)(C)C)=NN1c1ccc(C(=O)O)cc1", "note": "(stereo not given)", "melting point": 213}, {"molecule": "Cc1cccc(C)c1NC(=O)c1ccc(C#N)cc1", "melting point": "185 to 187"}, {"molecule": "Nc1ccc([N+](=O)[O-])cc1OCCO", "melting point": "140 to 142"}, {"molecule": "CCC(CC)c1nn(-c2ncc(C(F)(F)F)cn2)cc1CCCOc1c(CC(=O)O)cccc1OC", "melting point": "163 to 164"}, {"molecule": "CSc1ccc(C(=O)N2CC2C#N)nn1", "note": "(stereo not given)", "melting point": "97 to 100"}, {"molecule": "COc1cc(-c2ccccn2)cc([N+](=O)[O-])c1OC", "melting point": "89 to 90"}, {"molecule": "CCCCCCCC[C@H](CC(=O)OC(C)(C)C)C(=O)N1C(=O)OC[C@@H]1C(C)C", "melting point": "58 to 59"}, {"molecule": "CCCC(OC)c1ccc(Cl)c2nc3n(c12)CCCN3c1ccc(Cl)cc1Cl", "note": "(stereo not given)", "melting point": "139 to 140"}, {"molecule": "CCOC(=O)c1ncn2c1CNC(=O)c1sccc1-2", "melting point": "263 to 264"}, {"molecule": "Cc1nnc(-c2ccc3occ(-c4cc(Cl)ccc4F)c3c2)o1", "melting point": "187 to 188"}, {"molecule": "CCCC1=C(C#N)C(c2ccccc2Cl)c2c(n[nH]c2CCC)N1", "note": "(stereo not given)", "melting point": 237}]}]}
